From patent US20240382417A1, “Compositions Comprising Guaifenesin and Eriodictyol” (SYMRISE AG, priority 2018, published 2024)
Marks after values point to notes of the source that are not given here.

Columns and labels:
guaifenesin bitterness = conditions: 200 ppm (0.2 mg/ml) HED against 13 mg/ml guaifenesin; cited from earlier work
HGT-1 cells = assay: guaifenesin-induced acid (proton) secretion in HGT-1 cells; format: cell-based, human; conditions: for proton secretory activity (log2 transformed ratio of treated vs. untreated cells): mean ± SEM
Description: Human gastric tumour cell line 1 (HGT-1; Laboisse C. L.; Augeron C.; Couturier-Turpin M. H.; Gespach C.; Cheret A. M.; Potet F., Characterization of a newly established human gastric cancer cell line HGT-1 bearing histamine H2-receptors, Canc. Res., 1982, 42, 1541 to 1548) is a suitable screening tool for detecting the interaction of bitter agents and bitter modulating substances (Liszt, K. I.; Hans, J.; Ley, J. P.; Kock, E.; Somoza, V., Characterization of bitter compounds via modulation of proton secretion in human gastric parietal cells in culture, J. Agric. Food Chem., 2018, 66 (10), 2295-2300.). Therefore, the effect of eriodictyol on guaifenesin-induced acid secretion in the HGT-1 cell line was determined to predict the modulation of guaifenesin-induced bitterness by eriodictyol. To this aim, HGT-1 cells were cultured under standard conditions and passaged at ca. 80% confluence. […] HGT-1 cells were pre-loaded with (acetyloxy) methyl-3-(acetyloxy)-10-(dimethylamino)-3′-oxo-spiro[7H-benzo [c]xanthene-7,1′(3H)-isobenzofuran]-ar′-carboxylate and incubated in 130 mM NaCl 130, 4.7 mM KCl, 1.3 mM CaCl2, 1.2 mM MgSO4, 1.2 mM KH2PO4, 11.7 mM glucose, 10 mM HEPES 10, 20 μM 4,4′-Diisothiocyanatostilbene-2,2′-disulfonic acid disodium and 20 μM 5-(N-Ethyl-N-isopropyl) amiloride at pH 7.4. Fluorescence recordings were performed with an excitation wavelength of 488 nm and monitoring the emission wavelengths of 580 nm and 640 nm, respectively, each with a 20 nm bandwidth. […]
The data in Table 1 are presented as mean±SEM derived from 7 biological replicates and 14 to 21 technical replicates. Outliers were identified using the Nalimov test, statistical significance was tested one-way ANOVA with Tukey's range test for multiple comparisons and Bonferroni correction, establishing the threshold for significance at p<0.0071. Accordingly, data are marked with * (p<0.0071), ** (p<0.0014) or *** (p<0.00014). Control: untreated cells
The data in Table 2 are presented as mean±SEM derived from 7 biological replicates and 14 to 21 technical replicates. Outliers were identified using the Nalimov test, statistical significance was tested one-way ANOVA with Tukey's range test for multiple comparisons and Bonferroni correction, establishing the threshold for significance at p<0.0071. Accordingly, data are marked with * (p<0.0071), ** (p<0.0014) or *** (p<0.00014). Control: untreated cells

trained sensory panel = assay: sensory panel test of guaifenesin-induced bitterness perception (sip and spit, randomized comparison); format: in vivo, human; conditions: guaifenesin used in combination with eriodictyol; refers to Table 3
Method: To verify the effect of eriodictyol on guaifenesin-induced bitterness perception, an aqueous solution of 13 g/l guaifenesin (1) was tested against an aqueous solution containing 13 g/l guaifenesin and 20 mg/l eriodictyol (2) or 100 mg/l homoeriodictyol (3). The test was conducted as a randomized comparison test in a trained sensory panel (n=20 to 30) via a sip and spit procedure. The panelists tasted both solutions in a blinded fashion and rated bitterness on a scale of 0 to 100.

COc1cc([C@@H]2CC(=O)c3c(O)cc(O)cc3O2)ccc1O (stereo in doubt) [homoeriodictyol, (2S)-/(2R)-5,7-Dihydroxy-2-(4-hydroxy-3-methoxyphenyl)-4-chromanone]
reduction in guaifenesin bitterness (guaifenesin bitterness): about 40%
proton secretory activity (log2 transformed ratio of treated vs. untreated cells) (HGT-1 cells; 10 mM guaifenesin ± 3 μM homoeriodictyol, timepoint 0 min): −0.2514 ± 0.0260
proton secretory activity (log2 transformed ratio of treated vs. untreated cells) (HGT-1 cells; 10 mM guaifenesin ± 3 μM homoeriodictyol, timepoint 5 min): −0.1923 ± 0.0304
proton secretory activity (log2 transformed ratio of treated vs. untreated cells) (HGT-1 cells; 10 mM guaifenesin ± 3 μM homoeriodictyol, timepoint 10 min): −0.2547 ± 0.0320
proton secretory activity (log2 transformed ratio of treated vs. untreated cells) (HGT-1 cells; 10 mM guaifenesin ± 3 μM homoeriodictyol, timepoint 15 min): −0.2538 ± 0.0317
proton secretory activity (log2 transformed ratio of treated vs. untreated cells) (HGT-1 cells; 10 mM guaifenesin ± 3 μM homoeriodictyol, timepoint 20 min): −0.2677 ± 0.0264
proton secretory activity (log2 transformed ratio of treated vs. untreated cells) (HGT-1 cells; 10 mM guaifenesin ± 3 μM homoeriodictyol, timepoint 25 min): −0.2472 ± 0.0296
proton secretory activity (log2 transformed ratio of treated vs. untreated cells) (HGT-1 cells; 10 mM guaifenesin ± 3 μM homoeriodictyol, timepoint 30 min): −0.2493 ± 0.0300
proton secretory activity (log2 transformed ratio of treated vs. untreated cells) (HGT-1 cells; 10 mM guaifenesin ± 30 μM homoeriodictyol, timepoint 0 min): −0.2845 ± 0.0235
proton secretory activity (log2 transformed ratio of treated vs. untreated cells) (HGT-1 cells; 10 mM guaifenesin ± 30 μM homoeriodictyol, timepoint 5 min): −0.1702 ± 0.0265
proton secretory activity (log2 transformed ratio of treated vs. untreated cells) (HGT-1 cells; 10 mM guaifenesin ± 30 μM homoeriodictyol, timepoint 10 min): −0.1272 ± 0.0263*
proton secretory activity (log2 transformed ratio of treated vs. untreated cells) (HGT-1 cells; 10 mM guaifenesin ± 30 μM homoeriodictyol, timepoint 15 min): −0.1934 ± 0.0259
proton secretory activity (log2 transformed ratio of treated vs. untreated cells) (HGT-1 cells; 10 mM guaifenesin ± 30 μM homoeriodictyol, timepoint 20 min): −0.2282 ± 0.0260
proton secretory activity (log2 transformed ratio of treated vs. untreated cells) (HGT-1 cells; 10 mM guaifenesin ± 30 μM homoeriodictyol, timepoint 25 min): −0.1601 ± 0.0206
proton secretory activity (log2 transformed ratio of treated vs. untreated cells) (HGT-1 cells; 10 mM guaifenesin ± 30 μM homoeriodictyol, timepoint 30 min): −0.2187 ± 0.0244
inhibition of proton secretion compared with eriodictyol (HGT-1 cells; co-incubation of 10 mM guaifenesin with 30 μM homoeriodictyol): did not exhibit such a pronounced inhibition
change in proton secretion compared to 10 mM guaifenesin alone (HGT-1 cells; co-incubation of 10 mM guaifenesin with 30 μM homoeriodictyol, only the time point at 10 min (p<0.0071)): significant decrease

O=C1CC(c2ccc(O)c(O)c2)Oc2cc(O)cc(O)c21 [eriodictyol, (2S)-/(2R)-2-(3,4-dihydroxyphenyl)-5,7-dihydroxy-4-chromanone]
reduction of bitterness of guaifenesin (trained sensory panel): ≥ 35%
proton secretory activity (log2 transformed ratio of treated vs. untreated cells) (HGT-1 cells; 10 mM guaifenesin + 3 μM eriodictyol, timepoint 0 min): −0.3389 ± 0.0274
proton secretory activity (log2 transformed ratio of treated vs. untreated cells) (HGT-1 cells; 10 mM guaifenesin + 3 μM eriodictyol, timepoint 5 min): −0.3351 ± 0.0246
proton secretory activity (log2 transformed ratio of treated vs. untreated cells) (HGT-1 cells; 10 mM guaifenesin + 3 μM eriodictyol, timepoint 10 min): −0.2874 ± 0.0241
proton secretory activity (log2 transformed ratio of treated vs. untreated cells) (HGT-1 cells; 10 mM guaifenesin + 3 μM eriodictyol, timepoint 15 min): −0.2595 ± 0.0264
proton secretory activity (log2 transformed ratio of treated vs. untreated cells) (HGT-1 cells; 10 mM guaifenesin + 3 μM eriodictyol, timepoint 20 min): −0.2622 ± 0.0286
proton secretory activity (log2 transformed ratio of treated vs. untreated cells) (HGT-1 cells; 10 mM guaifenesin + 3 μM eriodictyol, timepoint 25 min): −0.3259 ± 0.0279
proton secretory activity (log2 transformed ratio of treated vs. untreated cells) (HGT-1 cells; 10 mM guaifenesin + 3 μM eriodictyol, timepoint 30 min): −0.3237 ± 0.0296
proton secretory activity (log2 transformed ratio of treated vs. untreated cells) (HGT-1 cells; 10 mM guaifenesin + 30 μM eriodictyol, timepoint 0 min): −0.2324 ± 0.0297
proton secretory activity (log2 transformed ratio of treated vs. untreated cells) (HGT-1 cells; 10 mM guaifenesin + 30 μM eriodictyol, timepoint 5 min): −0.2396 ± 0.0252
proton secretory activity (log2 transformed ratio of treated vs. untreated cells) (HGT-1 cells; 10 mM guaifenesin + 30 μM eriodictyol, timepoint 10 min): −0.1630 ± 0.0308***
proton secretory activity (log2 transformed ratio of treated vs. untreated cells) (HGT-1 cells; 10 mM guaifenesin + 30 μM eriodictyol, timepoint 15 min): −0.1472 ± 0.0302**
proton secretory activity (log2 transformed ratio of treated vs. untreated cells) (HGT-1 cells; 10 mM guaifenesin + 30 μM eriodictyol, timepoint 20 min): −0.1496 ± 0.0269**
proton secretory activity (log2 transformed ratio of treated vs. untreated cells) (HGT-1 cells; 10 mM guaifenesin + 30 μM eriodictyol, timepoint 25 min): −0.1478 ± 0.0283***
proton secretory activity (log2 transformed ratio of treated vs. untreated cells) (HGT-1 cells; 10 mM guaifenesin + 30 μM eriodictyol, timepoint 30 min): −0.1886 ± 0.0272*
change in proton secretory activity of HGT-1 cells compared to 10 mM guaifenesin alone (HGT-1 cells; co-incubation of 10 mM guaifenesin with 30 μM eriodictyol, from 10 min onwards): significant decrease

COc1ccccc1OCC(O)CO (centres unmarked) [guaifenesin, 3-(2-methoxyphenoxy-) 1,2-propanediol]
proton secretory activity (log2 transformed ratio of treated vs. untreated cells) (HGT-1 cells; 10 mM guaifenesin alone, Table 1, timepoint 0 min): −0.3130 ± 0.0306
proton secretory activity (log2 transformed ratio of treated vs. untreated cells) (HGT-1 cells; 10 mM guaifenesin alone, Table 1, timepoint 5 min): −0.2720 ± 0.0225
proton secretory activity (log2 transformed ratio of treated vs. untreated cells) (HGT-1 cells; 10 mM guaifenesin alone, Table 1, timepoint 10 min): −0.3283 ± 0.0253
proton secretory activity (log2 transformed ratio of treated vs. untreated cells) (HGT-1 cells; 10 mM guaifenesin alone, Table 1, timepoint 15 min): −0.2945 ± 0.0277
proton secretory activity (log2 transformed ratio of treated vs. untreated cells) (HGT-1 cells; 10 mM guaifenesin alone, Table 1, timepoint 20 min): −0.2885 ± 0.0266
proton secretory activity (log2 transformed ratio of treated vs. untreated cells) (HGT-1 cells; 10 mM guaifenesin alone, Table 1, timepoint 25 min): −0.3135 ± 0.0260
proton secretory activity (log2 transformed ratio of treated vs. untreated cells) (HGT-1 cells; 10 mM guaifenesin alone, Table 1, timepoint 30 min): −0.3241 ± 0.0280
proton secretory activity (log2 transformed ratio of treated vs. untreated cells) (HGT-1 cells; 10 mM guaifenesin alone, Table 2, timepoint 0 min): −0.2712 ± 0.0190
proton secretory activity (log2 transformed ratio of treated vs. untreated cells) (HGT-1 cells; 10 mM guaifenesin alone, Table 2, timepoint 5 min): −0.2170 ± 0.0217
proton secretory activity (log2 transformed ratio of treated vs. untreated cells) (HGT-1 cells; 10 mM guaifenesin alone, Table 2, timepoint 10 min): −0.2543 ± 0.0268
proton secretory activity (log2 transformed ratio of treated vs. untreated cells) (HGT-1 cells; 10 mM guaifenesin alone, Table 2, timepoint 15 min): −0.2518 ± 0.0274
proton secretory activity (log2 transformed ratio of treated vs. untreated cells) (HGT-1 cells; 10 mM guaifenesin alone, Table 2, timepoint 20 min): −0.2081 ± 0.0243
proton secretory activity (log2 transformed ratio of treated vs. untreated cells) (HGT-1 cells; 10 mM guaifenesin alone, Table 2, timepoint 25 min): −0.2454 ± 0.0265
proton secretory activity (log2 transformed ratio of treated vs. untreated cells) (HGT-1 cells; 10 mM guaifenesin alone, Table 2, timepoint 30 min): −0.2730 ± 0.0241
